tested on: T-cell factor (TCF)-luciferase reporter using Wnt pathway as index; experiment: Inhibitory activity against TCF-luciferase reporter using Wnt pathway as index (DLD-1/TCF-Luc cells); assay type: cell-based, human; conditions: 1 μmol/L; DLD-1/TCF-Luc cells; luciferase activity after 18 hours
Description: Test Example 1: Inhibitory Activity Against T-Cell Factor (TCF)-Luciferase Reporter Using Wnt Pathway as Index
The inhibitory activity of test compounds against Wnt pathway was evaluated by the following method.
A human colorectal adenocarcinoma cell line DLD-1 (Japanese Collection of Research Bioresources) was cultured in RPMI-1640 medium (Gibco/Life Technologies, Inc.) containing 10% fetal bovine serum (Gibco/Life Technologies, Inc.), 10 mmol/L of a 4-(2-hydroxyethyl)-1-piperazineethanesulfonic acid (HEPES) buffer solution (Gibco/Life Technologies, Inc.), 1 mmol/L of a sodium pyruvate solution (Gibco/Life Technologies, Inc.), 4.5 g/L of a D-(+)-glucose solution (Sigma-Aldrich, Inc.), 100 units/mL penicillin (Gibco/Life Technologies, Inc.) and 100 μg/mL of streptomycin (Gibco/Life Technologies, Inc.) under the conditions of 37° C. and 5% carbon dioxide gas. The DLD-1 cells were seeded in a 10 cm dish, and 20 μg of a luciferase gene plasmid pGL4.27 having a TCF responsive sequence inserted therein was transfected into the cells using 10 μL of Attractene (Qiagen, Inc.) according to the protocol attached to the product. A stably expressing cell line (DLD-1/TCF-Luc) was selected using […] of hygromycin B (Wako Pure Chemical Industries Ltd.). The DLD-1/TCF-Luc cells were detached with trypsin and seeded in a 384-well plate, and a test compound was added at different concentrations. After 18 hours, the luciferase activity was measured using Steady-Glo™ Luciferase Assay System (Promega, Inc.).
The inhibition ratio was obtained according to the following formula 1. The inhibition ratio (%) of the compound of the present invention at 1 μmol/L against the TCF-luciferase reporter using the Wnt pathway as an index is shown in Table 6. [Math. 1] Inhibition ratio (%)=100−{(luciferase activity when test compound was added)−(luciferase activity of blank)}/{(luciferase activity of control)−(luciferase activity of blank)}×100 Formula 1

First: 4-(3-{[1-(6-Aminopyrimido[3,4-d]pyrimidin-4-yl)piperidin-4-yl]methyl}-2-oxo-3,4-dihydroquinazolin-1(2H)-yl)picolinonitrile [Compound 33]
Second: N#Cc1ccccc1CN1C(=O)N(CC2CCN(c3ncnc4cc5c(cc34)OCO5)CC2)Cc2ccccc21 [Compound 3, 2-[(3-{[1-([1,3]Dioxo[4,5-g]quinazolin-8-yl)piperidin-4-yl]methyl}-2-oxo-3,4-dihydroquinazolin-1(2H)-yl)methyl]benzo nitrile]
The “Inhibition ratio (%) at 1 μmol/L” value of the first is higher: 82% for the first, 77% for the second.

Going from `CNC(=O)c1ccc2c(N3CCC(CN4Cc5ccccc5N(c5cccc(C#N)c5)C4=O)CC3)ncnc2c1` [Compound 26, 4-(4-{[1-(3-Cyanophenyl)-2-oxo-1,2-dihydroquinazolin-3(4H)-yl]methyl}piperidin-1-yl)-N-methylquinazoline-7-carboxamido] to `N#Cc1cc(N2C(=O)N(CC3CCN(c4ncnc5cc(C(N)=O)ccc45)CC3)Cc3ccccc32)ccn1` [Compound 28, 4-(4-{[1-(2-Cyanopyridin-4-yl)-2-oxo-1,2-dihydroquinazolin-3(4H)-yl]methyl}piperidin-1-yl)quinazoline-7-carboxamido], the “Inhibition ratio (%) at 1 μmol/L” value rises from 77% to 84%.

First: N#Cc1cc(N2C(=O)N(CC3CCN(c4ncnc5cnc(C(N)=O)cc45)CC3)Cc3ccccc32)ccc1F [Compound 45, 4-(4-{[1-(3-Cyano-4-fluorophenyl)-2-oxo-1,2-dihydroquinazolin-3(4H)-yl]methyl}piperidin-1-yl)pyrido[3,4-d]pyrimidine-6-carboxamido]
Second: N#Cc1cc(N2C(=O)N(CC3CCN(c4ncnc5cnc(C(N)=O)cc45)CC3)Cc3ncccc32)ccc1F [Compound 46, 4-(4-{[1-(3-Cyano-4-fluorophenyl)-2-oxo-1,2-dihydropyrido[3,2-d]pyrimidin-3(4H)-yl]methyl}piperidin-1-yl)pyrido[3,4-d]pyrimidine-6-carboxamido]
The “Inhibition ratio (%) at 1 μmol/L” value of the first is higher: 86% for the first, 84% for the second.

same assay, conditions: Homo sapiens, DLD-1, 18 h, read-out: Inhibition ratio (%) at 1 μmol/L

Going from `CN1CCN(C(=O)c2ccc3c(N4CCC(CN5Cc6ccccc6N(c6ccnc(C#N)c6)C5=O)CC4)ncnc3c2)CC1` [Compound 27, 4-[3-({1-[7-(4-Methylpiperazine-1-carbonyl)quinazolin-4-yl]piperidin-4-yl}methyl)-2-oxo-3,4-dihydroquinazolin-1(2H)-yl]picolinonitrile] to `N#Cc1cc(N2C(=O)N(CC3CCN(c4ncnc5[nH]ccc45)CC3)Cc3ccccc32)ccn1` [Compound 31, 4-(3-{[1-(7H-pyrrolo[2,3-d]pyrimidin-4-yl)piperidin-4-yl]methyl}-2-oxo-3,4-dihydroquinazolin-1(2H)-yl)picolinonitrile], the inhibition at 1 µM falls from 88% to 74%.

First: N#Cc1cc(N2C(=O)N(CC3CCN(c4nccn5c(=O)[nH]nc45)CC3)Cc3ccccc32)ccn1 [Compound 39, 4-(2-Oxo-3-{[1-(3-oxo-2,3-dihydro-[1,2,4]triazolo[4,3-a]pyrazin-8-yl)piperidin-4-yl]methyl}-3,4-dihydroquinazolin-1(2H)-yl)picolinonitrile]
Second: N#Cc1cc(N2C(=O)N(CC3CCN(c4nccc5c(=O)[nH]cnc45)CC3)Cc3ccccc32)ccn1 [Compound 42, 4-(2-Oxo-3-{[1-(4-oxo-3,4-dihydropyrido[3,4-d]pyrimidin-8-yl)piperidin-4-yl]methyl}-3,4-dihydroquinazolin-1(2H)-yl)picolinonitrile]
The inhibition at 1 µM of the first is higher: 89% for the first, 81% for the second.

`N#Cc1cccc(N2C(=O)N(CC3CCN(c4ncnc5c4COCC5)CC3)Cc3ccccc32)c1` [Compound 43, 3-(3-{[1-(7,8-Dihydro-5H-pyrano[4,3-d]pyrimidin-4-yl)piperidin-4-yl]methyl}-2-oxo-3,4-dihydroquinazolin-1(2H)-yl)benzonitrile] showed an inhibition at 1 µM of 85%.

same assay, conditions: Homo sapiens; 1 μmol/L; DLD-1/TCF-Luc cells; luciferase activity after 18 hours; read-out: Inhibition ratio (%) at 1 μmol/L

Going from `N#Cc1ccccc1CN1C(=O)N(CC2CCN(c3nnnc4ccccc34)CC2)Cc2ccccc21` [Compound 4, 2-[(3-{[1-(Benzo[d][1,2,3]triazin-4-yl)piperidin-4-yl]methyl}-2-oxo-3,4-dihydroquinazolin-1(2H)-yl)methyl]benzonitrile] to `COc1cc2ncnc(N3CCC(CN4Cc5ccccc5N(c5cccc(C#N)c5)C4=O)CC3)c2cc1OC` [Compound 6, 3-(3-{[1-(6,7-Dimethoxyquinazolin-4-yl)piperidin-4-yl]methyl}-2-oxo-3,4-dihydroquinazolin-1(2H)-yl)benzonitrile], the inhibition at 1 µM rises from 74% to 76%.

Going from `COc1cc2ncnc(N3CCC(CN4Cc5ccccc5N(c5cc(C#N)ccn5)C4=O)CC3)c2cc1OC` [Compound 10, 2-(3-{[1-(6,7-Dimethoxyquinazolin-4-yl)piperidin-4-yl]methyl}-2-oxo-3,4-dihydroquinazolin-1(2H)-yl)isonicotinonitrile] to `COc1cc2ncnc(N3CCC(CN4Cc5ccccc5N(c5ccnc(C#N)n5)C4=O)CC3)c2cc1OC` [Compound 11, 4-(3-{[1-(6,7-Dimethoxyquinazolin-4-yl)piperidin-4-yl]methyl}-2-oxo-3,4-dihydroquinazolin-1(2H)-yl)pyrimidine-2-carbonitrile], the inhibition at 1 µM rises from 79% to 87%.

`COc1cc2ncnc(N3CCC(CN4Cc5ccccc5N(c5ccnc(C(N)=O)c5)C4=O)CC3)c2cc1OC` [Compound 14, 4-(3-{[1-(6,7-Dimethoxyquinazolin-4-yl)piperidin-4-yl]methyl}-2-oxo-3,4-dihydroquinazolin-1(2H)-yl)picolinamide] and `COc1cc2ncnc(N3CC(CN4Cc5ccccc5N(c5ccnc(C#N)c5)C4=O)C3)c2cc1OC` [Compound 17, 4-(3-{[1-(6,7-Dimethoxyquinazolin-4-yl)azetidin-3-yl]methyl}-2-oxo-3,4-dihydroquinazolin-1(2H)-yl)picolinonitrile] are the same in inhibition at 1 µM: 76% for the first, 76% for the second.

Compared with `COc1cc2ncnc(N3CCC(NC4Cc5ccccc5N(c5ccnc(C#N)c5)C4=O)CC3)c2cc1OC` (centres unmarked) [Compound 19, 4-{3-[1-(6,7-Dimethoxyquinazolin-4-yl)piperidin-4-ylamino]-2-oxo-3,4-dihydroquinolin-1(2H)-yl}picolinonitrile], `COc1cc2ncnc(N3CCC(Cn4c(=O)c5ccccc5n(-c5cccc(C#N)c5)c4=O)CC3)c2cc1OC` [Compound 20, 3-(3-{[1-(6,7-Dimethoxyquinazolin-4-yl)piperidin-4-yl]methyl}-2,4-dioxo-3,4-dihydroquinazolin-1(2H)-yl)benzonitrile] is lower in inhibition at 1 µM: 91% for the first, 83% for the second.

First: N#Cc1cc(N2C(=O)N(CC3CCN(c4ncnc5cnccc45)CC3)Cc3cc(F)cnc32)ccn1 [Compound 23, 4-(6-Fluoro-2-oxo-3-{[1-(pyrido[3,4-d]pyrimidin-4-yl)piperidin-4-yl]methyl}-3,4-dihydropyrido[2,3-d]pyrimidin-1(2H)-yl)picolinonitrile]
Second: N#Cc1cc(N2C(=O)N(CC3CCN(c4ncnc5cc(C(N)=O)ncc45)CC3)Cc3cnccc32)ccc1F [Compound 52, 4-(4-{[1-(3-Cyano-4-fluorophenyl)-2-oxo-1,2-dihydropyrido[4,3-d]pyrimidin-3(4H)-yl]methyl}piperidin-1-yl)pyrido[4,3-d]pyrimidine-7-carboxamido]
The inhibition at 1 µM of the first is higher: 84% for the first, 81% for the second.

Going from `N#Cc1cc(N2C(=O)N(CC3CCN(c4nccc5nc[nH]c(=O)c45)CC3)Cc3cc(F)ccc32)ccn1` [Compound 49, 4-(6-Fluoro-2-oxo-3-{[1-(4-oxo-3,4-dihydropyrido[4,3-d]pyrimidin-5-yl)piperidin-4-yl]methyl}-3,4-dihydroquinazolin-1(2H)-yl)picolinonitrile] to `N#Cc1ccc2c(c1)CN(CC1CCN(c3nccc4nc[nH]c(=O)c34)CC1)C(=O)N2c1ccnc(C(N)=O)c1` [Compound 51, 4-(6-Cyano-2-oxo-3-{[1-(4-oxo-3,4-dihydropyrido[4,3-d]pyrimidin-5-yl)piperidin-4-yl]methyl}-3,4-dihydroquinazolin-1(2H)-yl)picolinamide], the inhibition at 1 µM rises from 82% to 90%.
